{"source": "patent US8742114B2", "about": "“Nucleic acid detections and methods of their use” (priority 2011, dated 2014)", "key": {"dsDNA, ssDNA, and RNA": {"tested_on": "dsDNA, ssDNA, and RNA", "test": "Selectivity test on dsDNA, ssDNA, and RNA in TE buffer", "conditions": "2 μM dye, 10 μg/mL nucleic acid, 1×TE buffer, ex 480 nm (36, 40) or 620 nm (49), FIG. 2", "quoted_text": "Compound 36, compound 40, and compound 49 were prepared in 2 μM concentration in 1×TE buffer, individually. Salmon sperm dsDNA, calf thymus ssDNA, and E. coli rRNA were prepared in 10 μg/mL concentration in 1×TE buffer, individually. Equal amount of each solution of dsDNA, ssDNA, and RNA was added to the solutions of compound 36, compound 40 and compound 49, individually. The emission spectrum associated with each of the solutions was scanned at excitation wavelength 480 nm for compound 36 and 40, and at excitation wavelength 620 nm for compound 49."}, "[1]": {"tested_on": "live and fixed HeLa cells", "test": "Cellular nucleic acid staining", "assay_type": "cell-based", "conditions": "1 μM in PBS buffer, 10 min, fluorescence microscopy, FIG. 5", "method": "Compound 38, compound 42, and compound 61 were prepared in 1 mM stock solution in water, respectively. Each compound at 1 μM concentration in PBS buffer was incubated with live and fixed HeLa cells in 96-well plate for 10 min, respectively. The fluorescence imaging of cells was taken on a fluorescence microscopy with a 488 nm excitation laser and a 520±15 nm emission filter, as shown in FIG. 5."}, "DNA or RNA": {"tested_on": "DNA or RNA", "test": "Binding selectivity on DNA or RNA (effect of R3)", "conditions": "R3 methyl 4-benzoate versus R3 H"}, "nucleic acids": {"tested_on": "nucleic acids", "conditions": "background; cited from earlier work"}, "[2]": {"conditions": "background; cited from earlier work"}}}
{"smiles": "COCCOCCOCCOCCN1C(N(CCC[N+](C)(C)C)CCC[N+](C)(C)C)=C/C(=C/c2sc3ccccc3[n+]2C)c2ccccc21", "note": "[Compound 40]", "values": [{"measurement": "selectivity among dsDNA, ssDNA and RNA (fluorescence emission spectra)", "setting": "dsDNA, ssDNA, and RNA", "result": "good selectivity for DNA versus RNA"}]}
{"smiles": "CC[N+](C)(CC)Cc1ccc(C2=C/C(=C/c3sc4ccccc4[n+]3C)c3ccccc3N2CCOCCOCCOCCOC)cc1", "note": "[Compound 42]", "values": [{"measurement": "live cell permeability", "setting": "[1]", "result": "live cell impermeant"}]}
{"smiles": "CN(C)CCCN(CCCN(C)C)C1=C/C(=C\\C=C\\c2sc3ccc(S(=O)(=O)[O-])cc3[n+]2C)c2ccccc2N1C", "note": "[Compound 53]", "values": [{"measurement": "binding selectivity on DNA or RNA", "setting": "DNA or RNA", "result": "high selectivity for DNA over RNA"}]}
{"smiles": "CN(C)CCCN(CCCN(C)C)C1=C/C(=C\\c2sc3ccccc3[n+]2C)c2ccccc2N1CCCCCC(=O)NCCOCCO.[I-]", "note": "[Compound 61]", "values": [{"measurement": "live cell permeability", "setting": "[1]", "result": "live cell impermeant"}]}
{"smiles": "CCCN1C=C/C(=C\\c2sc3ccccc3[n+]2C)c2ccccc21", "note": "[SYBR Safe]", "values": [{"measurement": "detection sensitivity on nucleic acids", "setting": "nucleic acids", "result": "low sensitive than desired"}]}
{"smiles": "CN1C(=Cc2cc[n+](C)c3ccccc23)Sc2ccccc21", "note": "[Thiazole Orange]", "values": [{"measurement": "detection sensitivity on nucleic acids", "setting": "nucleic acids", "result": "low detection sensitivity"}]}
{"smiles": "CC[n+]1c(-c2ccccc2)c2cc(N)ccc2c2ccc(N)cc21", "note": "[ethidium bromide, Ethidium bromide]", "values": [{"measurement": "mutagenicity", "setting": "[2]", "result": "mutagenic"}]}
